This note sets out measurements from patent US20240150755A1, “MODULATING REGULATORY T CELL FUNCTION IN AUTOIMMUNE DISEASE AND CANCER” (Salk Institute for Biological Studies, priority 2021, published 2024).

This series relates to Brd9-dependent Foxp3 binding sites. Description: ATAC-seq chromatin accessibility in Treg cells. The format is cell-based, mouse. The note with it: sgBrd9 vs sgNT Treg cells; 61/1699 sites. The protocol: ATAC-seq was performed according to previously published protocol (Corces et al., Nat Methods 14:959-962, 2017). Briefly, Tregs transduced with either sgNT or sgBrd9 were subjected to Ficoll™ gradient purification to remove dead cells and ensure capture of cells that were 99% viable. 50,000 Treg cells were collected in duplicates per genotype and washed first with cold 1×PBS then with Resuspension buffer (RSB; 10 mM Tris-HCl pH 7.4, 10 mM NaCl, 3 mM MgCl2). Cells were lysed in 50 μL of RSB supplemented with 0.1% NP40, 0.01% Digitonin and 0.1% Tween 20 for 3 minutes on ice then diluted with 1 mL of RSB with 0.1% Tween 20. […]
ATAC-seq data analysis used the following tools and versions: cutadapt (v2.4), samtools (v1.9), Picard (v1.7.1), BWA (v0.7.12), macs2 (v2.1.2), and HOMER (v4.11). Paired end 42 bp reads were trimmed using cutadapt to remove Nextera™ adapter sequences then aligned to the reference mouse genome mm10 using BWA. The following were filtered out using Picard and samtools: duplicate reads, mitochondrial reads, low quality reads (Q<20), and improperly paired or unpaired reads. Quality was assessed by calculating Fraction of Reads In Peaks ([…]) which were >40% for all samples. TSS enrichment was determined using mm10 Refseq TSSs. […]

Regarding “sgBrd9: sgRNA targeting Brd9, ATTAACCGGTTTCTCCCGGG (SEQ ID NO: 12) (expressed or natural sequence)”, the “Brd9-dependent Foxp3 binding sites with significant reduction in chromatin accessibility” value is listed as 3.5%.
